Data set [1] is described as follows: Metabolic stability in human liver microsomes (microsomal clearance). Format: in vitro ADME. The settings on record: pH 7.4; human liver microsomes 0.25 mg protein/mL, 0.5 μM compound, NADPH, 37° C.; read-out: mClint. As to the method: Samples of the tested compounds (0.5 μM) were preincubated together with human liver microsomes (0.25 mg of microsomal protein/mL) in 0.05 M potassium phosphate buffer of pH 7.4 in microtiter plates at 37° C. for 5 minutes. The reaction was started by adding NADPH (1.0 mM). After 0, 5, 10, 15, 20 and 30 minutes, an aliquot was removed, the reaction was cooled and stopped by adding twice the amount of quench solution consisting of acetonitrile/methanol 1:1, and containing 0.2 μM carbutamide as internal standard. The samples were frozen until analyzed. The remaining concentration of undegraded test substance was determined by liquid chromatography-tandem mass spectrometry (LC-MS/MS). The half-life (t1/2) was determined from the gradient of the ratio of the signal of (test substance/internal standard)/unit time plot, allowing the calculation of the half-life of the test substance, assuming first order kinetics, from the decrease in the concentration of the compound with time. The microsomal clearance (mClint) was calculated as follows: mClint=((ln(2)/t 1/2)/Microsomal Protein Concentration (mg/ml))*1000, leading to the unit of μL/min/mg.
Background: Liver microsomes are vesicles of endoplasmic reticulum, rich in cytochrome P450 enzymes.

The target of another data set is T1, h-5-HT6 receptor (Homo sapiens, UniProt P50406).
T1 construct: expressed in transfected cells
T1 sequence (P50406 whole entry): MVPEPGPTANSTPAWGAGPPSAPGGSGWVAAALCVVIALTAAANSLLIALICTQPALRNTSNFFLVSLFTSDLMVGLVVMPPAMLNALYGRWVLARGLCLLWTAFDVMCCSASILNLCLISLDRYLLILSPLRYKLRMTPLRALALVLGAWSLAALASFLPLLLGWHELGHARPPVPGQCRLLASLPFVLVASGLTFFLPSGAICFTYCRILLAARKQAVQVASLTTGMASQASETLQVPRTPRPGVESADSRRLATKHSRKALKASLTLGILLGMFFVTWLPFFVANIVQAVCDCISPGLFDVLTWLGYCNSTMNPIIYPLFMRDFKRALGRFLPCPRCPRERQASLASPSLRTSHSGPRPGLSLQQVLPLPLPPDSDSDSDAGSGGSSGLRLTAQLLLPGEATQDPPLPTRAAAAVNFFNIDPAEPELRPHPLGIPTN
Kind of data set: 5-HT6 receptor binding assay (displacement of [3H]-LSD). As to conditions: cloned human 5-HT6 receptor, HEK293 membranes, 1 nM [3H]-LSD. How it is done: Displacement of radioligands binding to the following cloned human receptors
1. Preparation of Membranes by Ultrasonic Treatment and Differential Centrifugation
Cells from stable clonal cell lines expressing the corresponding receptor (5-HT6, α1-adrenergic, dopamine D2 or histamine H1 receptors) were washed with PBS (w/o Ca^++, Mg^++) and harvested in PBS with 0.02% EDTA. The cells were collected by centrifugation at 500 g for 10 min. at 4° C., washed with PBS and centrifuged (500 g, 10 min. 4° C.). The pellets were stored at −80° C. until use. For membrane preparation, the thawed cell pellet was resuspended in ice-cold sucrose buffer (0.25 M sucrose, 10 mM Hepes (pH 7.4), 1 mM Phenylmethylsulfonyl fluoride (PMSF) in DMSO, 5 μg/ml Pepstatin-A, 3 mM EDTA, 0.025% Bacitracin) and homogenized with a Branson Sonifier W-250 (Settings: Timer 4; Output Control 3; Duty Cycle constant; 2 to 3 cycles). Cell disruption was checked with the aid of a microscope. Remaining unbroken cells were pelleted at 1.000 g for 10 min. at 4° C. The sucrose buffer supernatant was then centrifuged at 60.000 g for 1 h at 4° C. (Beckman Ultrazentrifuge XL 80). The pellet was resuspended in 30 ml ice-cold Tris buffer (20 mM TRIS (pH 7.4), 5 μg/ml Pepstatin A, 0.1 mM PMSF, 3 mM EDTA) by pipetting through a 10 ml serological pipet and centrifuged for 1 h at 4° C. at 60.000 g. A final resuspension was performed in a small volume of ice-cold Tris buffer (see above) by pressing through a serological pipet followed by ultrasonic treatment with a Branson Sonifier W-250 (Settings: Timer 1; Output Control 3; Duty Cycle constant; 1 cycle). Protein concentration was determined (BCA-Kit; Pierce) and aliquots stored at −80° C. or in liquid nitrogen for long-term storage.
2. Receptor Binding Experiments
All receptor binding experiments were carried out in the corresponding assay buffer in a total volume of 200 μl in the presence of various concentrations of test compound (10^−5 M to 10^−9 M, tenfold serial dilution, duplicate determinations). The assays were terminated by filtration on polyethylenimine (PEI 0.1% or 0.3%) presoaked Packard Unifilter Plates (GF/C or GF/B) with a Tomtec MachIII U 96 well-plate harvester. After the plates had been dried for 2 h at 55° C. in a drying chamber scintillation cocktail (BetaPlate Scint; PerkinElmer) was added. Radioactivity was measured in a Microbeta Trilux two hours after the addition of the scintillation mixture. Data derived from liquid scintillation counting were analysed by iterative non-linear regression analysis with the use of the Statistical Analysis System (SAS): a program similar to “LIGAND” as described by Munson and Rodbard (Analytical Biochemistry 107, 220-239 (1980).
a) 5-HT6 Receptor Binding Assay
HEK293 cells stably expressing the h-5-HT6 receptor (NCBI Reference Sequence XM 001435) were cultured in RPMI1640 medium supplemented with 25 mM HEPES, 10% fetal calf serum and 1-2 mM glutamine. The membrane preparation was performed as described in section 1. […] Non-specific binding was defined with 1 μM methiothepin. The binding reaction was carried out for 3.5 h at room temperature. During the incubation, the plates were shaken on a plate shaker at 100 rpm and terminated by filtration on Packard Unifilter GF/C (0.1% PEI) plates, followed by 2 wash cycles with ice-cold 50 mM Tris-HCl, 5 mM CaCl2.
Data derived from liquid scintillation counting were analyzed by iterative non-linear regression analysis with the use of the Statistical Analysis System (SAS): a program similar to “LIGAND” as described by Munson and Rodbard (Anal. Biochem. 1980, 107, 220-239). Fitting was performed according to formulae described by Feldman (Anal. Biochem. 1972, 48, 317-338). IC50, nH and Ki values were expressed as geometrical mean.

The structures appear in SMILES notation. Some results are limits rather than exact numbers.

A word on the Ki: it is the equilibrium dissociation constant of an inhibitor or competing ligand from its target. Lower therefore signals a stronger hold on the target. Turning to `COc1ccccc1S(=O)(=O)c1cnc2c(N3CC(O)C3)cccc2c1` [Example 39, 1-[3-(2-Methoxyphenyl)sulfonyl-8-quinolyl]azetidin-3-ol], in data set [1], the microsomal CLint at 0.5 μM lay in the range of 60 to 120 µL/min/mg. For the same molecule, the Ki on h-5-HT6 receptor was 10 to 100 nM.
The matching figures for `O=S(=O)(c1ccccc1)c1cnc2c(N3CC[C@@H](O)[C@@H](O)C3)cccc2c1` [Example 41, (3S,4R)-1-[3-(Benzenesulfonyl)-8-quinolyl]piperidine-3,4-diol]: under 30 µL/min/mg and under 10 nM.
In the same order, the values of `O=S(=O)(c1ccccc1)c1cnc2c(N3C[C@@H](O)[C@@H](O)C3)cccc2c1` [Example 42, (3R,4S)-1-[3-(Benzenesulfonyl)-8-quinolyl]pyrrolidine-3,4-diol] are under 30 µL/min/mg and under 10 nM.
Turning to `O=C(O)C1CN(c2cccc3cc(S(=O)(=O)c4cccc(C(F)(F)F)c4)cnc23)C1` [Example 44, 1-[3-[3-(Trifluoromethyl)phenyl]sulfonyl-8-quinolyl]azetidine-3-carboxylic Acid], the microsomal CLint at 0.5 μM in data set [1] is under 30 µL/min/mg. Moreover, the inhibition constant (Ki) on h-5-HT6 receptor lay within 10 to 100 nM.
In the same order, the values of `O=S(=O)(c1ccccc1)c1cnc2c(N3C[C@@H](O)[C@H](O)C3)cccc2c1` [Example 45, (3R,4R)-1-[3-(Benzenesulfonyl)-8-quinolyl]pyrrolidine-3,4-diol] are under 30 µL/min/mg and under 10 nM.
